Starred links: 1 amine or outer side, 2 acyl side, 3 side chain; linkers in the order of their positions; H or OH if unused. Positions of bridges follow the written chain, without caps; N, C: chain ends. Non-standard residues stand in square brackets, D forms with d. Residues, ends and D or L forms follow the SMILES beside them. *: point of attachment. X1 = CC[C@H](C)[C@@H](N[*:1])[C@@H](O)CC(=O)O[C@H](C(=O)[C@H](C)C(=O)[*:2])C(C)C; NMeY = CN[C@@H](Cc1ccc(O)cc1)C(=O)O; dNMeL = CN[C@H](CC(C)C)C(=O)O; Pyruvoyl = CC(=O)C(=O)*
How the values were obtained:
L-type calcium channel = experiment: Whole-cell patch clamp measurement of calcium current (ICa) in isolated human atrial myocytes; assay type: cell-based; conditions: for action on human atrial ICa (current amplitude): whole-cell patch clamp, 22° C., composite dose-response curve (FIG. 2), compared with cells not exposed to drug
Protocol: Human atrial myocytes were obtained from specimens of human right atrial appendage obtained during surgery from hearts of patients undergoing cardiopulmonary bypass. Tissue samples were quickly immersed in a cardioplegia solution consisting of (in mmol/L): 50 KH2 PO4, 8 MgSO4, 10 NaHO3, 5 adenosine, 25 taurine, 140 glucose, and 100 mannitol, titrated to a pH of 7.4 and bubbled with 100% O2 at 0-4° C. Specimens were then minced into 0.5-1 mm cubes and transferred to a 50 ml conical tube containing an ultra-low calcium wash solution containing (in mmol/L); 137 NaCl, 5 KH2 PO4, 1 MgSO4, 10 taurine, 10 glucose, 5 HEPES, and 100 μmol/L (μM) EGTA; pH=7.4 (22-24° C.).
The tissue was next gently agitated by continuous bubbling with 100% O2 for 5 minutes. The tissue was then incubated in 5 ml of solution containing (in mmol/L): 137 NaCl, 5 KH2 PO4, 10 taurine, 10 glucose, 5 HEPES, supplemented with 0.1% bovine albumin, 2.2 mg/ml collagenase type V and 1.0 mg/ml protease type XXIV (Sigma Chemical), pH=7.4 (37° C.) and bubbled continuously with 100% O2. The supernatant was removed after 40 minutes and discarded. The chunks were incubated in a solution of the same ionic composition but supplemented with only collagenase and 100 μmol/L CaCl2.
Microscopic examination of the medium was performed every 5-10 minutes to determine the number and quality of the isolated cells. When the yield appears to be maximal, the cell suspension was centrifuged for 2 minutes and the resulting pellet was resuspended in a modified Kraftbruhe solution containing (in mmol/L): 25 KCl, 10 KH2 PO4, 25 taurine, 0.5 EGTA, 22 glucose, 55 glutamic acid, and 0.1% bovine albumin, pH=7.3 (22-24° C.). Cells were used within 8 hrs after isolation. […]
Ionic currents were measured using the whole-cell variant of the patch clamp technique. […]
Calcium (Ca) currents were measured using an external solution having the composition (in mM): 1.8 CaCl2, 137 NaCl, 20 CsCl, 4 KCl, 1 MgCl2, 10 HEPES, 10 dextrose pH=7.4 with NaOH. […]

[1] = Effect on blood pressure (statement, no method described); conditions: in vivo

SMILES | L-type calcium channel enhancement (L-type calcium channel; FIGS. 1A, 1B and 2) | action on human atrial ICa (current amplitude) (L-type calcium channel) | effect on blood pressure [1]
CC[C@H](C)[C@H]1NC(=O)[C@@H](NC(=O)[C@@H](CC(C)C)N(C)C(=O)[C@@H]2CCCN2C(=O)C(C)=O)[C@@H](C)OC(=O)[C@H](Cc2ccc(OC)cc2)N(C)C(=O)[C@@H]2CCCN2C(=O)[C@H](CC(C)C)NC(=O)[C@@H](C)C(=O)[C@H](C(C)C)OC(=O)C[C@@H]1O [Aplidine, dehydrodidemnin B] (Pyruvoyl-P[dNMeL]T[X1]LP[NMeY](Me); ester 3-C) | potent L-type calcium channel enhancer | highly effective, producing a very large increase in current amplitude | no effect on blood pressure
CC[C@H](C)[C@H]1NC(=O)[C@@H](NC(=O)[C@@H](CC(C)C)N(C)C(=O)[C@@H]2CCCN2C(=O)C(C)O)[C@@H](C)OC(=O)[C@H](Cc2ccc(OC)cc2)N(C)C(=O)[C@@H]2CCCN2C(=O)[C@H](CC(C)C)NC(=O)[C@@H](C)C(=O)[C@H](C(C)C)OC(=O)C[C@@H]1O (stereo partly shown) [Didemnin B] | – | no effect | –
